From patent US7456223B2, “Treatment of bruxism” (priority 2004, dated 2008)

Tests used:
[1] = taken orally; cited from earlier work
[2] = taken orally; cited from earlier work; remark: listed apart in the source
skeletal muscle spasm = details: after application
Excerpt: Cyclobenzaprine is a 5-HT2 receptor antagonist and its muscle relaxant effect is due to inhibition of serotonergic neurons.

## CN(C)CCC=C1c2ccccc2C=Cc2ccccc21 [cyclobenzaprine]
[1]
  binding to plasma proteins: highly bound to plasma proteins
[2]
  half life: one to three
Skeletal muscle spasm
  time to clinical improvement (local pain and tenderness, range of motion): ≤ 20 min
